Assay results taken from article PMC4988501, “Pinpointing a Mechanistic Switch Between Ketoreduction and “Ene” Reduction in Short‐Chain Dehydrogenases/Reductases” (Angewandte Chemie (International Ed. in English), 2016).

Assays:
Assay type in all cases: binding
[1] = target: T1, IPR (isopiperitenone reductase) (Mentha x piperita, UniProt Q6WAU1); test: X-ray crystal structure; conditions: oxidised cofactor scavenged from expression host
T1 construct: recombinant; scavenged NADP+ from host cells; catalytic Glu238; construct details only in supplement

[2] = target: T2, MNMR ((−)‐menthone:(+)‐neomenthol reductase) (Mentha x piperita, UniProt Q06ZW2); test: X-ray crystal structure, crystal soaking; conditions: crystals soaked with NADP+
T2 construct: recombinant; catalytic Tyr244; construct details only in supplement

[3] = target: T1, IPR (isopiperitenone reductase); test: X-ray crystal structure of complex; conditions: non-substrate, bound in a non-active conformation; with NADP+

T1 sequence (Q6WAU1 whole entry): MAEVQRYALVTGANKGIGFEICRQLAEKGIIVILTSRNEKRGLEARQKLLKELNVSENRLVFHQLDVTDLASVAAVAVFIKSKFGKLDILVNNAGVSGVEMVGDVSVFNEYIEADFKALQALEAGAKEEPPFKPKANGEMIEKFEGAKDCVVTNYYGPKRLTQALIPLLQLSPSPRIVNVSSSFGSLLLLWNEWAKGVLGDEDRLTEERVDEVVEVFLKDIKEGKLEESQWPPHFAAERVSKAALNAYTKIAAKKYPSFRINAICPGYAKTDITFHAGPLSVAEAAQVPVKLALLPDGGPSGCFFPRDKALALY
T2 sequence (Q06ZW2 entry or part of it): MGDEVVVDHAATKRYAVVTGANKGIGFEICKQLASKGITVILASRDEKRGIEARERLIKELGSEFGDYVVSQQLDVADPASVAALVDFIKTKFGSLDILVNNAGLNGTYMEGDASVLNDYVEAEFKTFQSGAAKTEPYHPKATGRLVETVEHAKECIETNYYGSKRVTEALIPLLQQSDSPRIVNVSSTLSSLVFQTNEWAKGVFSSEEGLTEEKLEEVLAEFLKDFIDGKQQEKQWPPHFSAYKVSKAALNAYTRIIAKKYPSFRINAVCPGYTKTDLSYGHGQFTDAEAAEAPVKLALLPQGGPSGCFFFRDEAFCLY

Row | Structure (SMILES) | X-ray crystal structure [1] | X-ray crystal structure, crystal soaking [2] | X-ray crystal structure of complex [3]
1 | NC(=O)c1ccc[n+]([C@@H]2O[C@H](COP(=O)(O)OP(=O)(O)OC[C@H]3O[C@@H](n4cnc5c(N)ncnc54)[C@H](OP(=O)(O)O)[C@@H]3O)[C@@H](O)[C@H]2O)c1 [NADP+] | presence of clear density in the F0−Fc map for NADP^+ | A coenzyme‐bound MNMR structure was obtained by soaking crystals with NADP^+ | –
2 | CC1=C(C=O)C(C)(C)CCC1 [β‐cyclocitral] | – | – | The IPR–β‐cyclocitral co‐crystal structure shows the ligand binds in a non‐active conformation
